The source of these data is US20210387983A1, “CRYSTALLINE ALK5 INHIBITORS AND USES THEREOF” (THERAVANCE BIOPHARMA R&D IP, LLC, priority 2020, published 2021).

The target in test [1] is T1, recombinant human ALK5 (TGF-βR1) protein (Homo sapiens, UniProt P36897).
T1 construct: purchased Life Technologies PR9075A
T1 sequence (P36897 34-503): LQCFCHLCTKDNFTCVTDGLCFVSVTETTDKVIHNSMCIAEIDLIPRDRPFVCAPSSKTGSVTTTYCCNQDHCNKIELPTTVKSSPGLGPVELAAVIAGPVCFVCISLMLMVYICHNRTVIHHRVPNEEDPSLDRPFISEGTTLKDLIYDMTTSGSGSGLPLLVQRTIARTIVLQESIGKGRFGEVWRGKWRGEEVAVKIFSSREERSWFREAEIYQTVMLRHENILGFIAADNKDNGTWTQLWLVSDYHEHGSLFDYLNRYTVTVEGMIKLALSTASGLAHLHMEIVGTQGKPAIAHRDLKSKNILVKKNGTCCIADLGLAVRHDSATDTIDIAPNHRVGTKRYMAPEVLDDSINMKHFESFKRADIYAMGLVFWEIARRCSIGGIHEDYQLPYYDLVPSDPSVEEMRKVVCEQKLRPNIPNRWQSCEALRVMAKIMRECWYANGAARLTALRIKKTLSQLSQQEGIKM
As to the kind of experiment: Biochemical ALK5 (TGF-βR1) assay to measure pKi (LANCE Ultra ULight kinase assay). Conditions: apparent pKi, converted from pIC50 using the Cheng-Prusoff equation. On the procedure:
The assays were performed in a 384-well plate (24 columns×16 wells/rows). An Echo®550 Liquid Handler (Labcyte) was used to prepare various intermediate concentrations of the compound of Formula I in 100% DMSO. From the intermediate concentrations, a range of concentrations (from 10 μM to […] corresponding to volumes up to 105 nL) were prepared and ejected into a final assay plate to be used to create individual dose response curves. To a separate column within the assay plate, 105 nL of DMSO in each well was used to establish a maximum assay signal. […]
Next, 2 μL of 125 μM ATP (5× final, 125 μM ATP prepared in assay buffer with 2 mM DTT) was added to the incubated mixtures, covered with a MicroClime® Environmental Lid (Product No. LLS-0310, Labcyte) and immediately transferred to 37° C. […] The plate was then read on a Perkin Elmer EnVision Plate Reader using europium specific reader settings with excitation and emission wavelengths set to 320 or 340 nm and 665 nm, respectively.
For dose-response analyses, percent inhibition versus compound concentrations were plotted, and pIC50 values were determined from a 4-parameter robust fit model with GraphPad Prism V5 Software (GraphPad Software, Inc., La Jolla, Calif.). […] Results were expressed as pIC50 (negative logarithm of IC50) and subsequently converted to pKi (negative logarithm of dissociate constant, Ki) using the Cheng-Prusoff equation. […]
For orientation: TR-FRET usually uses a lanthanide donor and a delayed reading to cut background.

Test [2] deals with syngeneic cancer models (4T1 cells, CT26 cells). As to the kind of experiment: Efficacy study in syngeneic cancer model (4T1 or CT26 cells). It counts as in vivo, BALB/c mice. The text has this: The compound of Formula I is expected to suppress tumor growth in syngeneic cancer models when administered alone or in combination with an immunotherapeutic agent. Six- to 8-week old BALB/c mice are used for in vivo efficacy studies in accordance with IACUC guidelines. Commercially available 4T1 cells (0.5-2.0×10^4 cells/mouse) are implanted subcutaneously into the right flanks of BALB/c mice. When the tumor reaches a palpable size of approximately 8-10 mm in diameter, the primary tumors are surgically removed, and the mice are randomly assigned to vehicle control or compound treatment groups. Alternatively, CT26 cells (0.5-2.0×10^4 cells/mouse) are injected intravenously into BALB/c mice to generate the cancer model. […]
Body weight is measured twice weekly. Following 2- to 4-weeks of treatment, the lung and liver of each animal is harvested, and the number of metastatic cells in each tissue sample determined using a clonogenic metastasis assay. […]

Test [3] deals with DSS-induced intestinal fibrosis. As to the kind of experiment: Efficacy study in murine DSS-induced intestinal fibrosis model. Particulars: oral gavage following the second of the 3 cycles of DSS; sacrifice at 6, 9 or 12 weeks. Format: in vivo, C57BL/6J mice. On the procedure: The compound of Formula I is expected to slow, halt or reverse the progression of intestinal fibrosis in a murine colitis model. Six to 8-week old male C57BL/6J mice are tagged and weighed. The drinking water of the animals is treated with 2.5% dextran sulfate sodium (DSS) for 7 days to induce acute colitis, followed by 2 days of normal drinking water. Three, 3-week cycles of 2.5% DSS treatment (1 week of 2.5% DSS in water; 2 weeks of normal water) are then completed to induce intestinal fibrosis. Following the second of the 3 cycles of DSS administration, mice are treated with either vehicle control or the compound of Formula I at an appropriate amount and frequency via oral gavage (e.g., once daily). Animals are sacrificed at either 6, 9 or 12 weeks after the first DSS cycle, then distal, mid and proximal sections of the colon harvested for histologic analysis, RNA extraction and cytokine measurement.

pKi: −log10 of the molar value.

On to `C[C@@H]1CN(CCNc2cnc3ccc(-c4nc[nH]c4-c4cc(Cl)ccc4F)nc3c2)C[C@H](C)N1` [compound of Formula I, 6-(5-(5-chloro-2-fluorophenyl)-1H-imidazol-4-yl)-N-(2-((3S,5R)-3,5-dimethylpiperazin-1-yl)ethyl)-1,5-naphthyridin-3-amine], for which, in test [1], the pKi was 9.50 to 10.40. Also, the “lung tumor burden in combination with an immunotherapeutic agent” value in test [2] (combination with immunotherapeutic agent (e.g., pembrolizumab or durvalumab), relative to either single agent alone) was “increased reduction in lung tumor burden”. Besides, the lung tumor burden entry in test [2] (compound alone, oral aspiration or intranasally, 2- to 4-weeks of treatment) is given as “reduction in lung tumor burden”. Moreover, the intestinal fibrosis result in test [3] is on record as “slow, halt or reverse intestinal fibrosis”.

By pKi is commonly meant −log10 of the Ki, conventionally taken in molar units.
